Columns and labels:
p53 = assay: Western blot for p53 expression in colon cancer cells with wild type p53; assay type: cell-based, human
Method: Actin is an internal control for total protein loading.
After the lysates are cleared by centrifugation at 15,000 g for 20 minutes at 4° C., the total protein is determined using Bio-Rad protein assay solution. Up to 50 μg of total protein is denatured in 2×SDS sample loading buffer for 5 minutes at 95° C., separated on 10-15% SDS-PAGE gels, and electrotransferred to the Pure Nitrocellulose Membrane (Bio-Rad, Hercules, Calif.) using semi-dry electrophoretic transfer. After the nonspecific binding sites on the membranes are blocked with 5% skim milk in TBS-T (20 mM Tris-HCl pH 7.5, 0.137 M NaCl, and 0.01% Tween 20) for 3 hours at room temperature with constant shaking, the membranes are incubated in TBS-T containing the relevant primary antibody (1: 500-1000) and 5% BSA overnight at 4° C. After washing with TB S-T three times, the membrane is incubated in 5% skim milk in TBS-T buffer containing the appropriate secondary anti-IgG antibody (1:5000) at room temperature for 1 h with constant shaking. The protein of interest is detected using Western Lightning®-ECL (Perkin Elmer, Waltham, Mass.) and visualized by exposure for various times (5-60 seconds). […]

HCT-8 colon cancer cells = assay: Cell growth inhibition, 72 hours; assay type: cell-based, human; conditions: HCT-8 cells
Method: Cell growth is then measured and the data are plotted as percentage of growth inhibition (no drug treatment was set at 0%). […] C. […] Representative cancer cell images were taken with a digital camera under phase-contrast microscope.

HCT116-A2 cells = assay: cells; assay type: cell-based, human
Method: (§1) Cancer cell viability and growth are determined by MTT assay. […] MTT is used as a colorimetric substrate for measuring cell viability and growth. When cell growth is inhibited, there is an alteration of cellular redox activity, and thus rendering cells unable to reduce the MTT dye. Cells are seeded in 96 well plates overnight and then treated with or without a compound/drug in the presence or absence of an protein molecule inhibitor (e.g. ABCG2 inhibitor ko143) for 48-72 hours, MTT is added to a final concentration 0.5 mg/ml. Cells are continuously incubated in a 5% CO2 incubator at 37° C. for 4 h with MTT and then lysed with a cell lysis buffer (20% SDS, 50% N,N-dimethylformamide, pH 4.7), 100 μl per well, for 4 h in the incubator. Subsequently, cell absorbance in each well is measured at 570 nm with an Ultra Microplate Reader (Bio-Tek Instruments). Results are reported as the mean±SD from 3-5 independent assays at each point. […] After 72 hours, media is removed and cells are harvested using 0.5 ml of 0.25% Trypsin-EDTA. Cells are counted and viability is analyzed on a Vi-CELL XR Cell Viability Analyzer (Beckman Coulter).

ABCG2 in HCT116-A2 cells = assay: Growth inhibition after ABCG2 shRNA silencing; assay type: cell-based, human; conditions: 72 hours
Method: Actin is internal control. B and C. […] Cells at sub-confluence are infected with lentiviral particles containing nonsense shRNA (ns), or AGCG2-specific shRNA (sh1, sh2) to silence ABCG2 expression in the cells. […] Viability for each dose was determined using a ViCELL XR cell viability analyzer and normalized to that of DMSO control. Error bars=SEM, n=3 independent experiments. Data are plotted graphically and EC50 values are calculated using GraphPad Prism 6.0.

HCT116-NS6 cells = assay: cells; assay type: cell-based, human
Method: as §1

[1] = test system: IAP and Bcl-2 family genes; assay: Affymetrix Human Gene 1.0 ST Array of FL118-treated PC3 cells; conditions: DNA microarray
[2] = test system: human proteins (MARK3, DDI1, TPD52L2, CACNB1, PGPCR1, USP2, MC2R, FGF18, TP53I3, CNBP, WDR22, PVGCSE-M1, UBE2T, ULP7, RBMS2, BMX, CCNB1IP1); assay: Protein microarray (ProtoArray) with FL118 as a probe; assay type: binding; conditions: over 9,000 human proteins
Excerpt: These targets include, but not limited to, MAP/microtubule affinity-regulating kinase 3 (MARK3), DNA-damage inducible 1 (DDI1), tumor protein D52-like 2 (TPD52L2), calcium channel, voltage-dependent, beta 1 subunit (CACNB1), Probable G-protein coupled receptor 1 (PGPCR1), ubiquitin specific peptidase 2 (USP2), melanocortin 2 receptor (MC2R), Fibroblast growth factor 18 (FGF18), tumor protein p53 inducible protein 3 (TP53I3), CCHC-type zinc finger, nucleic acid binding protein (CNBP), WD repeat domain 22 (WDR22), Potassium voltage-gated channel subfamily E member 1 (PVGCSE-M1), ubiquitin-conjugating enzyme E2T (putative) (UBE2T), Ubiquitin-like protein 7 (ULP7), RNA binding motif, single stranded interacting protein 2 (RBMS2), Cytoplasmic tyrosine-protein kinase (BMX), and cyclin B1 interacting protein 1 (CCNB1IP1).

HCT-8 cells = assay: Clonogenic assay, HCT-8 cells with shC or shp53; assay type: cell-based, human; conditions: 0.3 or 10 nM for 3 days, 14-days culture; shC versus shp53
Method: HCT-8 cells are infected with either control lentivirus (shC) or lentivirus expressing shRNA against human p53 (shp53). […] Cell colonies are stained with crystal violet solution after 14-days culture. […] Colonies larger than 50 cells are counted and normalized against non-treatment control group.
Cancer cells are infected with or without lentivirus particles expressing control shRNA or shRNA for p53 knockdown (pLKO.1) followed by selection with puromycin for one week at 5 μg/ml. […] Then the cells are cultured in an incubator at 37° C., 5% CO2 for another two weeks before fixation and staining with crystal violet solution. Colonies are defined as more than 50 cells and/or images are then digitally taken.

[3] = test system: pancreatic cancer PDX tumors (12872, 12914, 14244, 17624, 19015); assay: Pancreatic cancer patient-derived xenografts (PDX); design: species or system SCID mice; conditions: mouse, in vivo
[4] = test system: SW620 and HCT-8 colon cancer cells; assay: MTT assay with ABC transporter inhibitors; assay type: cell-based, human; conditions: sildenafil 50 μM, 3 days
Method: Subconfluent SW620, HCT-8, and HCT-116 cells were lysed and analyzed for the expression of MDR1 and ABCG2 using western blots (WB). Actin is the internal control. […] Cell growth/viability was then analyzed by MTT assays. Each time point in the individual curve is the mean±SD from 3 to 5 independent assays. […] Drugs were then washed out and cells were allowed to grow in new medium without drugs for 2 weeks. Cell colonies were stained with crystal violet solution; images were digitally taken. Triplicate results are shown.

[5] = Pharmacokinetics after IV injection in tumor-bearing SCID mice; assay type: in vivo
Method: Then, blood and tumor tissues were collected at 10 min, 1 h, 4 h, 12 h, 24, and 48 h. Three SCID mice at each time point were used. Standard deviation (SD) was analyzed using Excel software.
A 800 μl aliquot of ice cold acidified methanol is added to 200 μl plasma and vortexed for 15 sec. […] A 800 μl aliquot of ice cold acidified methanol is added to 200 μl homogenized tissue and then vortexed for 1 min. The samples are then centrifuged at 13,000 rpm for 5 min. and the supernatant is transferred to a clean 13×100 mm glass tube. Samples are dried under vacuum and stored at −20° C. until analysis. Dried samples were then reconstituted in 200 μl of mobile phase (80% 3% TEA and 20% acetonitrile pH 5.5) and 15 μl is injected. Analysis is carried out using an Acquity UPLC system with Fluorescence detection interfaced with Empower software. Separation is carried out on a Acquity BEH Shield RP18 1.7 μm, 2.1 mm×100 mm column (Waters). […] CPT-11 is used as the internal standard (IS); a 10 μl aliquot of a 1.3 μg/ml solution is added to each 200 μl sample. The fluorescence detector is set at the following Excitation (Ex) and Emissions (Em) wavelengths: Ex 370 nm Em 510 nm. […] To ensure quality assurance, quality control samples are prepared in plasma at 25 and 250 ng/ml aliquoted and stored at −20° C. The QC's are injected in duplicate at the beginning and end of the assay. […] Validation consists of running twelve standard curves over the course of 5 days. QC samples are analyzed with each curve.

HdmX, Hdm2 = assay: HdmX and Hdm2 protein and mRNA levels in HCT-8 cells
Method: Rescue of HdmX degradation by proteasome inhibitor MG132. […] Cell lysates are then analyzed by immunoblotting of HdmX. Actin expression is used as an internal control.

[6] = test system: human EU-4 acute lymphocytic leukemia; assay: EU-4 acute lymphocytic leukemia (ALL) mouse model; assay type: in vivo, SCID mice; conditions: IV, q2×5
Excerpt: The EU-4 cells are intraperitoneally injected (5×10^6 per SCID mouse). […] Body weight changes, belly enlargement and overall mouse survival status are documented every 2-3 days throughout the experiment period.
Of note, “died with ascites” means mice at a moribund/dying state and then being euthanized. This is because moribund mice need to be euthanized based on the animal protocol rule.

survivin promoter = assay: Survivin promoter-luciferase activity assay; assay type: cell-based, human
Method: Cancer cells are seeded in 48-well plates at about 50% confluent overnight in complete cell culture medium. Cells are either stably transfected with the pLuc-4080 survivin promoter-luciferase construct or transiently transfected with relevant luciferase reporter vectors. For transient transfection, 245 ng of targeting luciferase reporter construct plus 5 ng of internal control vector, pRK-tk in 30 μl serum-free DMEM, is mixed in a 1.5 ml tube containing 30 μl serum-free DMEM containing 0.4 μl Lipofectamine™ 2000. After incubation at room temperature for 20-25 minutes, the DNA/Lipofectamine complex is added to each well of 48-well plates, which already contain 300 μl corresponding complete growth medium in each well. […] Cells are further incubated for an additional 24-48 hours in a normoxia and/or hypoxia condition, followed by processing luciferase assays. For luciferase assay, a Dual-Luciferase Reporter Assay System (Promega) is used. Cells in 48-well plates are washed with PBS and lysed with 80 μl 1× passive lysis buffer on a shaker for up to 1 hour at 4° C. Twenty μl cell lysate per well is used to measure the Firefly and Renilla luciferase activity in triplicates in a Luminometer by subsequently adding 20 μl luciferase assay reagent and 20 μl Stop-Glo reagent. […]

[7] = IC50 of topotecan divided by IC50 of the drug

Structure (SMILES): CC[C@@]1(O)C(=O)OCc2c1cc1n(c2=O)Cc2cc3cc4c(cc3nc2-1)OCO4 [FL118]
- p53 protein expression (p53): strong and rapid induction of p53 expression
- more sensitive to colon cancer cells than topotecan (HCT-8 colon cancer cells): at least 25 time
- IC50 (HCT116-A2 cells): 163 pM
- RP (HCT116-A2 cells; [7]): 666.5
- effect of silencing of ABCG2 on cell growth inhibition (ABCG2 in HCT116-A2 cells): shows no effect to FL118
- IC50 (HCT116-NS6 cells): 138 pM
- RP (HCT116-NS6 cells; [7]): 40.87
- expression of Bcl-2 family antiapoptotic genes [1]: slightly decreases Mcl-1 and Bcl-XL, and shows no effect on Bcl-2, Bcl2A1, Bcl-w, Bcl-B, Bcl2L12, Bcl2L13, Bcl-G and Bcl2L15
- expression of IAP family genes [1]: decreases (2 fold cutoff) NAIP, cIAP2, XIAP and Bruce, and shows no effects on cIAP1, Livin and hILP2
- expression of proapoptotic proteins [1]: increases proapoptotic proteins Bax, Bad, Bim, Hrk, and Bmf without affecting the expression of Bid, Bik, Bak and Bok
- biochemical targets identified [2]: Revealed Novel FL118 Biochemical Targets
- clonogenic growth (HCT-8 cells): inhibits clonogenic growth independent of p53 status
- efficacy on different PDX tumors of the same type [3]: much different efficacy to different tumors of the same type
- sensitization by multi-efflux pump inhibitor sildenafil [4]: sildenafil does not sensitize FL118
- T1/2 ([5]; FaDu tumor, iv 1.5 mg/kg): 411.1 min
- Tmax ([5]; FaDu tumor, iv 1.5 mg/kg): 10 min
- Vz ([5]; FaDu tumor, iv 1.5 mg/kg): 33052 g/kg
- T1/2 ([5]; SW620 tumor, iv 1.5 mg/kg): 765 min
- Tmax ([5]; SW620 tumor, iv 1.5 mg/kg): 10 min
- Vz ([5]; SW620 tumor, iv 1.5 mg/kg): 30742 g/kg
- time FL118 is maintained in tumor ([5]; intravenous injection): over 48 hours
- time to clearance from blood ([5]; intravenous injection): ≤ 12 h
- Cl ([5]; mouse plasma, iv 1.5 mg/kg): 238.12 mL/min/kg
- Cmax ([5]; mouse plasma, iv 1.5 mg/kg): 43 ng/mL
- T1/2 ([5]; mouse plasma, iv 1.5 mg/kg): 107.3 min
- Tmax ([5]; mouse plasma, iv 1.5 mg/kg): 10 min
- Vz ([5]; mouse plasma, iv 1.5 mg/kg): 36.849 L/kg
- mRNA levels of HdmX and p21 (quantitative real time PCR) (HdmX, Hdm2; FL118 treatment for 8 h): does not significantly alter the mRNA levels of HdmX but increases the control gene p21 mRNA levels
- time to HdmX downregulation after treatment (HdmX, Hdm2; HCT-8 cells, 100 nM, time course): ≤ 4 h
- proteasomal degradation of HdmX and Hdm2 (HdmX, Hdm2; HCT-8 cells, 10 and 100 nM): promotes proteasomal degradation of HdmX but not Hdm2
- ascites production and animal survival [6]: effectively inhibits ascites production and extends animal survival
- concentration that can effectively inhibit survivin promoter activity (survivin promoter): 1 to 10 nM
- hypoxia-induced survivin promoter activity (survivin promoter; HCT116 cells with full-length survivin promoter-luciferase, 24 h, hypoxia): abrogated by FL118 treatment
